From ChEMBL document CHEMBL1201862, “PubChem BioAssay data set” (2004)
The source made the active and inactive calls.

Legend:
[1] = molecular target: T1, Mannose-6-phosphate isomerase (Homo sapiens, UniProt P34949); assay: MPI enzyme activity inhibition – biochemical, fluorescence intensity, coupled assay, primary screen (AID 1209)
T1 sequence (P34949 whole entry): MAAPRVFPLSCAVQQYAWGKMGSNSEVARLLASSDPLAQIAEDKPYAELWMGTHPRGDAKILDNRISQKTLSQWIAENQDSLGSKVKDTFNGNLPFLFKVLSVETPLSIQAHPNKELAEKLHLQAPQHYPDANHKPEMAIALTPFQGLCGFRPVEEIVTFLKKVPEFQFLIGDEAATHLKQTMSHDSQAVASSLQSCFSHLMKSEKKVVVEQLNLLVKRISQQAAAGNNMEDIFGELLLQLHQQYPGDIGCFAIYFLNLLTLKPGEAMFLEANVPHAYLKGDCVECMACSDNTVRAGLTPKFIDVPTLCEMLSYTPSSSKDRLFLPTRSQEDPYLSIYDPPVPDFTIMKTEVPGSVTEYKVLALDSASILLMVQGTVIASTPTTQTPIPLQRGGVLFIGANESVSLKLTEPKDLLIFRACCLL

[2] = molecular target: T1, Mannose-6-phosphate isomerase; assay: MPI inhibition at elevated mannose 6-phosphate – biochemical, fluorescence intensity, high mannose 6-phosphate, primary screen (AID 1220)
[3] = DRD fibroblast viability loss – cell-based, non-viral oncogenic, luminescence, dose response (AID 1934); type: functional; details: Homo sapiens
INS1 = assay: INS-1E survival protection against cytokine death – cell-based, luminescence, retest, dose response (AID 449756); type: functional; details: Rattus norvegicus;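 note: cell death triggered by IL-1 beta plus TNF-alpha plus IFN-gamma mixture; protective hits raise ATP signal compared with cytokine alone wells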
[4] = HEK-293T viability loss after treatment – luminescence, T-cell screen hits, cytotoxicity control for TCR NF-kB inhibitor project, dose response (AID 489026); type: functional, cell-based;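 note: cells exposed to compound about 14 hours before the viability readout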
BJ [5] = assay: BJ-TERT fibroblast viability loss – cell-based, RAS-independent, luminescence, dose response (AID 1933); type: functional; details: Homo sapiens
[6] = molecular target: Sphingosine 1-phosphate receptor 1 (Homo sapiens, UniProt P21453); type: functional;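 note: Tango beta-arrestin reporter U2OS cells stimulated with S1P near its EC80; inhibitor potency meaning antagonism of receptor activation by the natural agonist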
Sphingosine 1-phosphate receptor 1, sequence (P21453 whole entry): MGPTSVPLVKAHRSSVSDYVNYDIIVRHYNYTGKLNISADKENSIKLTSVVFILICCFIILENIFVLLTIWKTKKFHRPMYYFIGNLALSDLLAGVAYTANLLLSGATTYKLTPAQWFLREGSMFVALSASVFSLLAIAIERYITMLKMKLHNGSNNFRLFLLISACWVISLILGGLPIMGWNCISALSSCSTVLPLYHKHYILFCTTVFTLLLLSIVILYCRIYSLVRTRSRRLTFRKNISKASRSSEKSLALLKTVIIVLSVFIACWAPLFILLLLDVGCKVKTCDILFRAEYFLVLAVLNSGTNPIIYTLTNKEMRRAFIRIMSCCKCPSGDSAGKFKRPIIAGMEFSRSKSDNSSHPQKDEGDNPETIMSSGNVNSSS

[7] = molecular target: T2, Heat shock factor protein 1 (Mus musculus, UniProt P38532); assay: decrease of HSF1-responsive luciferase luminescence – cell-based, NIH3T3, dose retest, confirmation (AID 2382); type: functional;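 note: NIH3T3 fibroblasts with HSF1-driven luciferase reporter stressed by proteasome inhibitor MG132; luminescence from HSF1-driven luciferase expression after 8 hours of MG132 stress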
T2 sequence (P38532 whole entry): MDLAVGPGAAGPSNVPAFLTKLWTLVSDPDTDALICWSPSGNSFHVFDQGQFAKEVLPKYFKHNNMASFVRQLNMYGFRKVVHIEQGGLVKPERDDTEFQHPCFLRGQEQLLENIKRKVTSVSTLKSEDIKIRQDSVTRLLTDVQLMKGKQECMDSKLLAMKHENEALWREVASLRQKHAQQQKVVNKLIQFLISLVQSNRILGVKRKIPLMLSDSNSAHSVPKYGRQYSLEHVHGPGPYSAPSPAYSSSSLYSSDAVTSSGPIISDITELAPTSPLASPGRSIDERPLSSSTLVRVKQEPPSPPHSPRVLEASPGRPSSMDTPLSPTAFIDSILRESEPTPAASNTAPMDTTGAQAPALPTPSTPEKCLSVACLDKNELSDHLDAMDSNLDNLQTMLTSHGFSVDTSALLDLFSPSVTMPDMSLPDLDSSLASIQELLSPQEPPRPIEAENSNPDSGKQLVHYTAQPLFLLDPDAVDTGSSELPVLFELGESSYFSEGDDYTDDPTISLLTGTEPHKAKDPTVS

BJ [8] = assay: growth inhibition of engineered Ras-driven BJ cells – cell-based, alamar blue fluorescence, cherrypicked samples, dose response (AID 2631); type: functional; details: Homo sapiens;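 note: confirmatory dose-response assay in RAS-dependent BJ fibroblasts engineered with TERT, LT and ST, with cytotoxicity read by fluorescence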
BJ [9] = assay: BJ-TERT-LT-ST fibroblast viability loss – cell-based, RAS-independent, luminescence, dose response (AID 1935); type: functional; details: Homo sapiens;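 note: BJ fibroblasts immortalized with TERT plus LT and ST oncogenes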
[10] = molecular target: T3, Sphingosine 1-phosphate receptor 4 (Homo sapiens, UniProt O95977); assay: Fluorescence dose response cell-based high throughput screening assay for antagonists of the Sphingosine 1-Phosphate Receptor 4 (S1P4). [Related pubchem assays: 1524 (Confirmation in triplicates.), 1510 (Primary screen.)]; type: functional
T3 sequence (O95977 whole entry): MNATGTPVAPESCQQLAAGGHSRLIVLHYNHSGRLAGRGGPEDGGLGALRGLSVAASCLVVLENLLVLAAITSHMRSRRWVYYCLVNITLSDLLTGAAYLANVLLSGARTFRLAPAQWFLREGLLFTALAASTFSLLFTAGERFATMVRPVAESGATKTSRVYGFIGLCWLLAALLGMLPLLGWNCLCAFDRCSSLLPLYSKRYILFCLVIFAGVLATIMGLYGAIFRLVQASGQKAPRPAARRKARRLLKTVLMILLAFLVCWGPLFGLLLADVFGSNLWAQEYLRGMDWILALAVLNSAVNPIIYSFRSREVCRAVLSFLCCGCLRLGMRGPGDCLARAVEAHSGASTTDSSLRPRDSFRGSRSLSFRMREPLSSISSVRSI

BJ [11] = assay: cells; type: functional, cell-based; details: Homo sapiens
[12] = molecular target: Protein-tyrosine kinase 2-beta (Homo sapiens, UniProt Q14289);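 note: potency of inhibitors of PYK2 kinase phosphorylation of poly-GT substrate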
Protein-tyrosine kinase 2-beta, sequence (Q14289 whole entry): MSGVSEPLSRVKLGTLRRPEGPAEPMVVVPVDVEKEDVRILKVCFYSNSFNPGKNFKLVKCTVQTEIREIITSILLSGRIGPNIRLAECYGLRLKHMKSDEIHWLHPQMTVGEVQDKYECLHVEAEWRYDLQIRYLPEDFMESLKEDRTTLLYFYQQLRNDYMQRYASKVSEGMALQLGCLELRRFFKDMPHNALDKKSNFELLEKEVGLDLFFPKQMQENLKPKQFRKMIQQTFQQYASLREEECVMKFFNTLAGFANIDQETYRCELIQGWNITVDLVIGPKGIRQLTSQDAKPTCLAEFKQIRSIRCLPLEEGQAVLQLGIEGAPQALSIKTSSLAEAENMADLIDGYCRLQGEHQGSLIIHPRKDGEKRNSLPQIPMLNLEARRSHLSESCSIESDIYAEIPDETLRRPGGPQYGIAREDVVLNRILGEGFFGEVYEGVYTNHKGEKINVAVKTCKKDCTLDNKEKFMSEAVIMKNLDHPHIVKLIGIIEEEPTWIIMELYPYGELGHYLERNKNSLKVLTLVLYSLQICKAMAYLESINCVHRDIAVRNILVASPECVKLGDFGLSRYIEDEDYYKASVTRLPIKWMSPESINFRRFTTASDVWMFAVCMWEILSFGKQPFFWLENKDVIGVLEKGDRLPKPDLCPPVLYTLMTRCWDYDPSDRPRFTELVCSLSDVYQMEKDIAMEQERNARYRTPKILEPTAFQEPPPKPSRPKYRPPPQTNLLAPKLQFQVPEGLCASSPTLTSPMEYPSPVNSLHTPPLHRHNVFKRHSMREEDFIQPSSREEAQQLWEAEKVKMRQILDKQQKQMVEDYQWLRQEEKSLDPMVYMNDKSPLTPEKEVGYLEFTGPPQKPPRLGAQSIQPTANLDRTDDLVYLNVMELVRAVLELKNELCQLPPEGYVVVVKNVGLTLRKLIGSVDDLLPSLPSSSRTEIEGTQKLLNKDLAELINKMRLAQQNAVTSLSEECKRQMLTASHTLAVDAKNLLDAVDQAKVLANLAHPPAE

cells [13] = type: functional
[14] = THP-1 cell cytotoxicity, dose response, cytotoxicity control for non-replicating M. tuberculosis project (AID 489025); type: functional
[15] = NIH3T3 cell viability loss – ATP luminescence, mouse fibroblasts, counter-screen, dose response (AID 2010); type: functional, cell-based;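 note: cells exposed to compound for about 90 hours before reading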
cells [16] = assay: cells
[17] = Trypanosoma cruzi growth suppression in host cells – NIH3T3 host cells, beta-gal luminescence, confirmation (AID 2044); type: functional, cell-based;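 note: intracellular parasites grown in NIH/3T3 mouse fibroblasts as host cells; luminescent beta-galactosidase reporter signal from transgenic T. cruzi replicating inside host cells; inhibitors lower the luminescence signal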
[18] = Vero E6 cell cytotoxicity, dose response, cytotoxicity control for non-replicating M. tuberculosis project, secondary assay (AID 492998); type: functional, VeroE6; details: Vero C1008
[19] = viability inhibitors of stage V gametocytes – luminescence, dose response (AID 1117278); type: functional, cell-based;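 note: gametocytes exposed to compound for 24 hours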
[20] = molecular target: Voltage-dependent T-type calcium channel subunit alpha-1H (Homo sapiens, UniProt O95180); type: functional;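 note: channel activity triggered by adding a high calcium stimulation buffer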
[21] = viability loss in human Jurkat cells – cell-based, luminescence, cytotoxicity control for P. falciparum gametocyte viability project, dose response (AID 1117277); type: functional;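 note: potency reflects loss of cellular ATP meaning fewer viable cells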
[22] = molecular target: T4, Microphthalmia-associated transcription factor (Homo sapiens, UniProt O75030); assay: reducers of TRPM1 reporter luminescence, concentration series – cell-based, SK-MEL-5, cherry-picked, set 3, MITF inhibitor project, dose response (AID 493073); type: functional;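 note: SK-MEL-5 melanoma cells with luciferase driven by the MITF target TRPM1 promoter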
T4 sequence (O75030 whole entry): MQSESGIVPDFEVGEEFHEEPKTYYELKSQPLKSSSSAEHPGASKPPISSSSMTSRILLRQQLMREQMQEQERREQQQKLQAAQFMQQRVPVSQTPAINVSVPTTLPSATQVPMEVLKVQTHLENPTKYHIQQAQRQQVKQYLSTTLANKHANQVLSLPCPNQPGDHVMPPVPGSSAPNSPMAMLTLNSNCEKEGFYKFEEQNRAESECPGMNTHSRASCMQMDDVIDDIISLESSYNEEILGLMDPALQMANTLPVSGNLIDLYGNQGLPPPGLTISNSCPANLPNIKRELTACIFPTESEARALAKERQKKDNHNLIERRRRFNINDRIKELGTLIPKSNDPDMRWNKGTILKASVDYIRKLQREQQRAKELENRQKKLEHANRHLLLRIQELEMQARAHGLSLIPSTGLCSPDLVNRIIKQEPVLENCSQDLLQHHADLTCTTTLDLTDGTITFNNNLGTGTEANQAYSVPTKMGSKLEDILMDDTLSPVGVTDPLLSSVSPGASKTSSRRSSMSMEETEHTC

Estrogen receptor beta [23] = molecular target: T5, Estrogen receptor beta (Homo sapiens, UniProt Q92731); assay: blockers of SRC-3 recruitment to ERβ – biochemical, ELISA, streptavidin-HRP readout, orthogonal assay, confirmation (AID 1060)
T5 sequence (Q92731 whole entry): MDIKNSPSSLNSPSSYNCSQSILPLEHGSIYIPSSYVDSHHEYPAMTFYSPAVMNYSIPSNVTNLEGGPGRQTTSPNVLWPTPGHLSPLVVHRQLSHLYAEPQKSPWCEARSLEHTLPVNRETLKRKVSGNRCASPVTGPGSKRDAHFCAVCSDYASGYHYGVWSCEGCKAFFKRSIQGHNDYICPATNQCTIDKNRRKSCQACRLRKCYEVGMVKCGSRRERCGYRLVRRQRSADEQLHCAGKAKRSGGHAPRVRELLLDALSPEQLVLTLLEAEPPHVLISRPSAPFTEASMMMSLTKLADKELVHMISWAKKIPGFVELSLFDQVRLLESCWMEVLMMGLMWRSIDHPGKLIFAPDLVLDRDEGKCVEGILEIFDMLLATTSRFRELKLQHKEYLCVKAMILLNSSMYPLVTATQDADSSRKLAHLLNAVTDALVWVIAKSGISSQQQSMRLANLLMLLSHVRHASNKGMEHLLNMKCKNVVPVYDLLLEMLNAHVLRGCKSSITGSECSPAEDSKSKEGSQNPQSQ

Estrogen receptor beta [24] = molecular target: T5, Estrogen receptor beta
Bcl-2-like protein 10 = molecular target: T6, Bcl-2-like protein 10 (Homo sapiens, UniProt Q9HD36); assay: Bcl-B/TR3 peptide binding disruption – biochemical, fluorescence polarization, FITC-TR3 peptide, selectivity assay for Bfl-1 inhibitor project, primary screen (AID 748);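 note: fluorescence polarization from a fluorescein-labelled TR3 peptide binding purified Bcl-B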
T6 sequence (Q9HD36 whole entry): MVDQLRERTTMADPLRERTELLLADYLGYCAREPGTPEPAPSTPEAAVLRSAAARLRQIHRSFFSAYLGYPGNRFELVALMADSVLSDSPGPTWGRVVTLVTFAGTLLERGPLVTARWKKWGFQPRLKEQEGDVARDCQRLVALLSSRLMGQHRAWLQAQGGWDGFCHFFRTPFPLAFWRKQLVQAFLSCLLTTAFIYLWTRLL

[25] = molecular target: T7, Carboxy-terminal domain RNA polymerase II polypeptide A small phosphatase 1 (Homo sapiens, UniProt Q9GZU7); assay: CTDSP1 inhibitors, concentration-response, biochemical, absorbance readout, ultra-high-throughput screen actives (AID 540297); type: functional
T7 sequence (Q9GZU7 whole entry): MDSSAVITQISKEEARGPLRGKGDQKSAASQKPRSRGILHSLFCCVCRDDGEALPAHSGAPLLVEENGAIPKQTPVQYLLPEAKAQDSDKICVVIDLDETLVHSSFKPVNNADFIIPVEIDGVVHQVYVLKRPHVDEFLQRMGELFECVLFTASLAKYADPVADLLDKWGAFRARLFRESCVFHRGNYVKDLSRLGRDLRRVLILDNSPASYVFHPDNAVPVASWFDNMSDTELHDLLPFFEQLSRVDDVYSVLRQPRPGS

SUMO-activating enzyme [26] = molecular target: T8, SUMO-activating enzyme (Homo sapiens, UniProt Q9UBT2); assay: blockers of UBC9-mediated SUMO conjugation – biochemical, AlphaScreen, SUMOylation inhibitor project, confirmation (AID 2018); type: functional
T8 sequence (Q9UBE0 whole entry): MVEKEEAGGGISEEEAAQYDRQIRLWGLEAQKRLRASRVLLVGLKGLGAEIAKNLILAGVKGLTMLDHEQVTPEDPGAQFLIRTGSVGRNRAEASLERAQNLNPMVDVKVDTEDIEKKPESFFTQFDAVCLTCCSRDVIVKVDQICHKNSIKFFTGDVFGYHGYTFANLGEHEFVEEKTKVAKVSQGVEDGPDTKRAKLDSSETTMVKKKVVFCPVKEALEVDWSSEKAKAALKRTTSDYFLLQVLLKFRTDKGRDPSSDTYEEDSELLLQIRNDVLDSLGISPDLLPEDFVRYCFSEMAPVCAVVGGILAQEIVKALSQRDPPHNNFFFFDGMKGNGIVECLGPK
T8 sequence (Q9UBT2 whole entry): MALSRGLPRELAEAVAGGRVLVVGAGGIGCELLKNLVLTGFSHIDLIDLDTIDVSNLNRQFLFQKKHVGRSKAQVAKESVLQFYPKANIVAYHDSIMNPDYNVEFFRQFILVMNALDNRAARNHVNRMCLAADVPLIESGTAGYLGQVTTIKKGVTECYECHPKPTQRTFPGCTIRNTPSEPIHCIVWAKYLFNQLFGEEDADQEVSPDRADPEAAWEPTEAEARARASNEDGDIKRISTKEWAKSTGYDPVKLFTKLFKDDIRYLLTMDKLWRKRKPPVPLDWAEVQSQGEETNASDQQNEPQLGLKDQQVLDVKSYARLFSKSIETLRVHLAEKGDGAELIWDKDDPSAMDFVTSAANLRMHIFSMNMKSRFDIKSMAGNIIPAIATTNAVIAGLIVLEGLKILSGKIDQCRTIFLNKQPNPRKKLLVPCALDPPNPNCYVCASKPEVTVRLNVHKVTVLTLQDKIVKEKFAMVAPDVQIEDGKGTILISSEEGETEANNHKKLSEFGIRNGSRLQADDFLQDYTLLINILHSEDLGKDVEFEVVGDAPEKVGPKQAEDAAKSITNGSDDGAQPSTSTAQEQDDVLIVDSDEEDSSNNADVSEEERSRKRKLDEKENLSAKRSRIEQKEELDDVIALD

SUMO-activating enzyme [27] = molecular target: T8, SUMO-activating enzyme; assay: blockers of SAE1/SAE2–UBC9 SUMO transfer – biochemical, HTRF, uHTS, primary screen (AID 2006); type: protein-complex assay
[28] = A cytotoxicity screen of small molecule inhibitors of the PhoP region in Salmonella typhi identified in the primary screen. [Related pubchem assays: 1850, 1864, 1985 ]; type: functional

With `N#Cc1c(NCCO)nc(NCc2ccccc2)c2c1CCN(Cc1ccccc1)C2` the IC50 [1] was > 50 µM (not active) and the IC50 [2] was > 50 µM (not active).

With `O=S1(=O)C=C(Sc2nc3ccccc3s2)c2ccccc21` the EC50 [3] was 3.3 µM (active), the AC50 (INS1) was 3.36 µM (active) and the IC50 [4] was 60.3 µM (inactive). The EC50 (BJ [5]) was 1.23 µM (active), the IC50 [6] was 12.6 µM (not active) and the EC50 [7] was 3.93 µM (inconclusive). For the same compound, the EC50 (BJ [8]) was 0.13 µM (active), the EC50 (BJ [9]) was 1.73 µM (inconclusive) and the IC50 [10] was 0.474 µM (active). For the same compound, the EC50 (BJ [11]) was 6.14 µM (inconclusive).

In the case of `Cc1ccc(-c2onc3ccc(C=O)cc23)cc1`, the IC50 [12] is reported as 30.1 µM (not active).

With `CCOC(=O)CNCCC(=O)c1ccc(Br)cc1` the IC50 [1] was > 50 µM (not active), the IC50 (cells [13]) was 20.4 µM (active) and the IC50 [2] was > 50 µM (not active).

With `CCN1CCN(c2ccc(S(=O)(=O)N3CCCCC3)cc2NC(=O)c2ccc([N+](=O)[O-])s2)CC1` the CC50 [14] was 10.5 µM (active), the AC50 (INS1) was 3.46 µM (active) and the EC50 [15] was 6.56 µM (active). For the same compound, the IC50 (cells [13]) was 7.51 µM (active), the EC50 (cells [16]) was 0.052 µM (active) and the EC50 [17] was < 0.1 µM (active). For the same compound, the CC50 [18] was 8.95 µM (active).

For `CCCn1nnc(NC(=O)c2ccc(-c3cccc(Cl)c3)o2)n1`, the IC50 [19] was > 109 µM (inactive), the EC50 [20] was 6.81 µM (active) and the IC50 [21] was > 83.4 µM (inactive).

In the case of `CC(=O)Cn1ncc(Br)c(Br)c1=O`, the AC50 [22] is reported as 15.8 µM (active), the EC50 [15] is reported as 0.976 µM (active) and the IC50 [6] is reported as 16.6 µM (not active). The EC50 [7] was 12.4 µM (active), the EC50 [17] was 1.24 µM (active) and the IC50 [10] was 4.22 µM (active).

For `O=C(Nc1cccc2cccc(NC(=O)c3ccco3)c12)c1ccco1`, the IC50 (Estrogen receptor beta [23]) was > 50 µM (not active) and the IC50 (Estrogen receptor beta [24]) was 15.5 µM (active).

With `O=C(CCC1CCCN(Cc2ccc(O)c(Cl)c2)C1)NCc1ccccc1F` (centres undefined) the EC50 [15] was > 60 µM (not active), the EC50 (cells [16]) was 0.077 µM (active) and the EC50 [17] was < 0.1 µM (active).

In the case of `COc1ccccc1-c1nnc2sc(-c3cnccn3)nn12`, the IC50 (Bcl-2-like protein 10) is reported as 28.5 µM (active), the IC50 [25] is reported as 9.06 µM (active) and the IC50 (Estrogen receptor beta [24]) is reported as 4.15 µM (active).

In the case of `Cn1c2ccccc2c(=O)n2c(=O)c3ccccc3cc12`, the IC50 (SUMO-activating enzyme [26]) is reported as 3.28 µM (active), the IC50 (SUMO-activating enzyme [27]) is reported as 10.9 µM (active) and the IC50 [12] is reported as > 69.5 µM (not active).

With `CCOc1ccc(NC(=O)CN(C)C(=O)c2ccccc2CCc2ccccc2)cc1OCC` the EC50 [28] was > 50 µM (active).

With `CN1CCN(CC(=O)Nc2sc3c(c2C#N)CCC3)CC1` the IC50 (Estrogen receptor beta [23]) was > 50 µM (not active).

In the case of `Cc1cc(C(=O)NCCC2=CCCCC2)no1`, the IC50 [19] is reported as > 109 µM (inactive) and the IC50 [21] is reported as > 83.3 µM (inactive).

In the case of `O=C(N/N=C/c1ccc2ccccc2c1)c1ccc(COc2ccc3c(c2)CCC3)o1`, the IC50 [25] is reported as 3.24 µM (active) and the IC50 [12] is reported as > 69.5 µM (not active).
